What was measured:
[1] = tested on: human myelomonocytic leukemia cells MV-4-11 [人髓性单核细胞白血病细胞 MV-4-11]; experiment: MTT proliferation inhibition, MV4-11 cells, 72 h; format: cell-based
[2] = tested on: human diffuse large B lymphoma cells TMD-8 [人弥漫大B淋巴瘤细胞TMD-8]; experiment: MTT proliferation inhibition, TMD-8 cells, 72 h; format: cell-based
[3] = tested on: human acute myeloid leukemia cells MOLM-13 [人急性髓系白血病细胞MOLM-13]; experiment: MTT proliferation inhibition, MOLM-13 cells, 72 h; format: cell-based
[4] = tested on: human large cell lung cancer cells H460 [人大细胞肺癌细胞 H460]; experiment: MTT proliferation inhibition, H460 cells, 72 h; format: cell-based
[5] = tested on: human liver cancer cells HEPG-2 [人肝癌细胞HEPG-2]; experiment: MTT proliferation inhibition, HEPG-2 cells, 72 h; format: cell-based; settings: 0.625-20 μg/ml
[6] = tested on: human cervical cancer cells HELA [人宫颈癌细胞HELA]; experiment: MTT proliferation inhibition, HELA cells, 72 h; format: cell-based; settings: within the measured range (0.625-20 μg/ml)
[7] = Water solubility (statement in words); format: physicochemical

呋喃并[2 ' ',3 ' ':5 ' ',6 ' ']萘并[1 ' ',2'':7 ',8 ']环十二烷[1 ',2':5,6]萘并[1,2-b]呋喃-10,11,21,22-四酮,6,7,8,9,19,20-六氢-1,12,17-三甲基-6-亚甲基-,(17E)- [四氢甘西鼠尾新酮A]
inhibition, concentration dependence ([1]; Figure 3, 0.625-20 μg/ml): 呈剂量依赖性
IC50 ([1]; MTT): 1.239 µg/mL
inhibition, concentration dependence ([2]; Figure 3, 0.625-20 μg/ml): 呈剂量依赖性
IC50 ([2]; MTT): 1.388 µg/mL
inhibition, concentration dependence ([3]; Figure 3, 0.625-20 μg/ml): 呈剂量依赖性
IC50 ([3]; MTT): 1.9 µg/mL
inhibition, concentration dependence ([4]; Figure 3, 0.625-20 μg/ml): 呈剂量依赖性
IC50 ([4]; MTT): 1.131 µg/mL
in vitro inhibitory activity [5]: 体外抑制活性较弱
in vitro inhibitory activity [6]: 在测量范围内未发现抑制活性
water solubility [7]: 水溶性较差

Reference: CN114106008A, “一种从丹参中提取分离的二萜醌类化合物及其方法和应用” (Chengdu Push Bio Technology Co ltd, priority 2021, dated 2022)
